Reference: patent US20090264384A1, “INDOLE, BENZIMIDAZOLE, AND BENZOLACTAM BORONIC ACID COMPOUNDS, ANALOGS THEREOF AND METHODS OF USE THEREOF” (Nuada, Inc., priority 2004, published 2009)

Legend:
D1(h) = target: T1, D1(h) (Homo sapiens, UniProt P21728); assay: D1(h) binding assay; conditions: read-out: % Inhibition of Control Specific Binding
T1 construct: expressed in transfected cells; host or cells: CHO cells

Glucocorticoid(h) (GR) = target: T2, Glucocorticoid(h) (GR) (Homo sapiens, UniProt P04150); assay: Glucocorticoid(h) (GR) binding assay; conditions: 1.0E−05 M; read-out: % Inhibition of Control Specific Binding
T2 construct: Glucocorticoid(h); IM-9 cells; dexamethasone; Clark et al. (1996); endogenous in cells; host or cells: IM-9 cells (cytosol)

MAO-B(h) = target: T3, MAO-B(h) (Homo sapiens, UniProt P27338); format: biochemical; conditions: 1.0E−05 M
T3 construct: human platelets; from tissue; host or cells: human platelets

Phosphodiesterase 3(h) = Phosphodiesterase 3(h) (Homo sapiens, UniProt Q14432); assay: Phosphodiesterase 3(h) enzyme assay; format: biochemical; conditions: 1.0E−05 M
AT1(h) = target: T4, AT1(h) (Homo sapiens, UniProt P30556); assay: AT1(h) binding assay; conditions: read-out: % Inhibition of Control Specific Binding
T4 construct: expressed in transfected cells; host or cells: CHO cells

NK3(h) = target: T5, NK3(h) (Homo sapiens, UniProt P29371); assay: NK3(h) binding assay; conditions: read-out: % Inhibition of Control Specific Binding
T5 construct: expressed in transfected cells; host or cells: CHO cells

AT2(h) = target: T6, AT2(h) (Homo sapiens, UniProt P50052); assay: AT2(h) binding assay; conditions: read-out: % Inhibition of Control Specific Binding
T6 construct: expressed in transfected cells; host or cells: Hela cells

NE transporter(h) = target: T7, NE transporter(h) (Homo sapiens, UniProt P23975); assay: NE transporter(h) binding assay; conditions: read-out: % Inhibition of Control Specific Binding
T7 construct: expressed in transfected cells; host or cells: MDCK cells

ORL1(h) (NOP) = target: T8, ORL1(h) (NOP) (Homo sapiens, UniProt P41146); assay: ORL1(h) (NOP) binding assay; conditions: 1.0E−05 M; read-out: % Inhibition of Control Specific Binding
T8 construct: expressed in transfected cells; host or cells: HEK-293 cells

Opiate (non-selective) = Opiate (non-selective) binding assay; design: species or system rat; conditions: 1.0E−05 M
TRH = TRH binding assay; design: species or system rat; conditions: 1.0E−05 M
B1(h) = target: T9, B1(h) (Homo sapiens, UniProt P46663); assay: B1(h) binding assay; conditions: 1.0E−05 M; read-out: % Inhibition of Control Specific Binding
T9 construct: expressed in transfected cells; host or cells: CHO cells

P2X = P2X binding assay; design: species or system rat; conditions: 1.0E−05 M
GABA transaminase = target: T10, GABA transaminase (Rattus norvegicus, UniProt P50554); assay: GABA transaminase enzyme assay; format: biochemical; conditions: 1.0E−05 M
T10 construct: rat brain; from tissue; host or cells: rat brain

σ (non-selective) = σ (non-selective) binding assay; design: species or system rat; conditions: 1.0E−05 M
β2(h) = target: T11, β2(h) (Homo sapiens, UniProt P07550); assay: β2(h) binding assay; conditions: read-out: % Inhibition of Control Specific Binding
T11 construct: expressed in transfected cells; host or cells: Sf9 cells

TNF-α production by PMBC = assay: Inhibition of TNF-α Production By Peripheral Blood Monocyte Cells (PMBC), LPS stimulated; format: cell-based; conditions: 1 ug/mL LPS, 24 hours
Description: PMBC in RPMI 1640 Cell Culture Medium (containing 1% Penicillin and 1% Streptomycin) are aliquoted into 96-well plates at 5×10^5 cells/well and pre-incubated with test compounds for 30 minutes at 37° C. After incubation, 1 ug/mL LPS is added to each well to stimulate TNF-α production and the plate is incubated for 24 hours at 37° C. After incubation, the supernatant is removed and the TNF-α secreted is quantified using EIA detection kits commercially available from R&D Systems (USA). The results from this assay are expressed as percent inhibition of control activity, with the control being stimulated wells with no test compound. Dexamethasone is used as a standard reference compound in the assay and is tested with each experiment. All test compounds are diluted from 10 mM stock solutions in 100% DMSO.

D2S(h) = target: T12, D2S(h) (Homo sapiens, UniProt P14416); assay: biochemical; format: binding; conditions: 1.0E−05 M; read-out: % Inhibition of Control Specific Binding
T12 construct: expressed in transfected cells; host or cells: CHO cells

D4.4(h) = D4.4(h) (Homo sapiens, UniProt P21917); assay: biochemical; conditions: 1.0E−05 M; read-out: % Inhibition of Control Specific Binding
SK^+Ca channel = SK^+Ca channel binding assay; design: species or system rat; conditions: 1.0E−05 M
Y (non-selective) = Y (non-selective) binding assay; design: species or system rat; conditions: 1.0E−05 M
Acetylcholinesterase(h) = target: T13, Acetylcholinesterase(h) (Homo sapiens, UniProt P22303); assay: Acetylcholinesterase(h) enzyme assay; format: biochemical; conditions: 1.0E−05 M
T13 construct: host or cells: HEK-293 cells

GABA (non-selective) = format: binding, rat; conditions: 1.0E−05 M
[1] = target: T14, Phenylethanolamine-N-methyl transferase (Bos taurus, UniProt P10938); assay: Phenylethanolamine-N-methyl transferase enzyme assay; format: biochemical, bovine; conditions: 1.0E−05 M
T14 construct: bovine adrenal; from tissue; host or cells: bovine adrenal medulla

CCKB(h) (CCK2) = target: T15, CCKB(h) (CCK2) (Homo sapiens, UniProt P32239); assay: CCKB(h) (CCK2) binding assay; conditions: read-out: % Inhibition of Control Specific Binding
T15 construct: expressed in transfected cells; host or cells: HEK-293 cells
T15 sequence (P32239 whole entry): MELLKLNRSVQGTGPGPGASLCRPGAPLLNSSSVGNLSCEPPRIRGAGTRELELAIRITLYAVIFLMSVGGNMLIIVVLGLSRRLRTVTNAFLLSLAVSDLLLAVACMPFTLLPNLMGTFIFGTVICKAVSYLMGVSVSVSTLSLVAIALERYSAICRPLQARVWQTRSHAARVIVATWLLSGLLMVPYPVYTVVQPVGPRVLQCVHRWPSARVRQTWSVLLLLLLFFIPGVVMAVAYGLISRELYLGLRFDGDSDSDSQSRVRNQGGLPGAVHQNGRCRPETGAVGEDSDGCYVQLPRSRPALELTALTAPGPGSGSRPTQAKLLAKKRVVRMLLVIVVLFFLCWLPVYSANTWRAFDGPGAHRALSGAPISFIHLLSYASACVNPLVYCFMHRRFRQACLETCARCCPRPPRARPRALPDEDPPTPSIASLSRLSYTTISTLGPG

K^+ATP channel = target: T16, K^+ATP channel (Rattus norvegicus, UniProt Q09429); assay: K^+ATP channel binding assay; conditions: 1.0E−05 M; read-out: % Inhibition of Control Specific Binding
T16 construct: rat cerebral; from tissue; host or cells: rat cerebral cortex
T16 sequence (Q09429 whole entry): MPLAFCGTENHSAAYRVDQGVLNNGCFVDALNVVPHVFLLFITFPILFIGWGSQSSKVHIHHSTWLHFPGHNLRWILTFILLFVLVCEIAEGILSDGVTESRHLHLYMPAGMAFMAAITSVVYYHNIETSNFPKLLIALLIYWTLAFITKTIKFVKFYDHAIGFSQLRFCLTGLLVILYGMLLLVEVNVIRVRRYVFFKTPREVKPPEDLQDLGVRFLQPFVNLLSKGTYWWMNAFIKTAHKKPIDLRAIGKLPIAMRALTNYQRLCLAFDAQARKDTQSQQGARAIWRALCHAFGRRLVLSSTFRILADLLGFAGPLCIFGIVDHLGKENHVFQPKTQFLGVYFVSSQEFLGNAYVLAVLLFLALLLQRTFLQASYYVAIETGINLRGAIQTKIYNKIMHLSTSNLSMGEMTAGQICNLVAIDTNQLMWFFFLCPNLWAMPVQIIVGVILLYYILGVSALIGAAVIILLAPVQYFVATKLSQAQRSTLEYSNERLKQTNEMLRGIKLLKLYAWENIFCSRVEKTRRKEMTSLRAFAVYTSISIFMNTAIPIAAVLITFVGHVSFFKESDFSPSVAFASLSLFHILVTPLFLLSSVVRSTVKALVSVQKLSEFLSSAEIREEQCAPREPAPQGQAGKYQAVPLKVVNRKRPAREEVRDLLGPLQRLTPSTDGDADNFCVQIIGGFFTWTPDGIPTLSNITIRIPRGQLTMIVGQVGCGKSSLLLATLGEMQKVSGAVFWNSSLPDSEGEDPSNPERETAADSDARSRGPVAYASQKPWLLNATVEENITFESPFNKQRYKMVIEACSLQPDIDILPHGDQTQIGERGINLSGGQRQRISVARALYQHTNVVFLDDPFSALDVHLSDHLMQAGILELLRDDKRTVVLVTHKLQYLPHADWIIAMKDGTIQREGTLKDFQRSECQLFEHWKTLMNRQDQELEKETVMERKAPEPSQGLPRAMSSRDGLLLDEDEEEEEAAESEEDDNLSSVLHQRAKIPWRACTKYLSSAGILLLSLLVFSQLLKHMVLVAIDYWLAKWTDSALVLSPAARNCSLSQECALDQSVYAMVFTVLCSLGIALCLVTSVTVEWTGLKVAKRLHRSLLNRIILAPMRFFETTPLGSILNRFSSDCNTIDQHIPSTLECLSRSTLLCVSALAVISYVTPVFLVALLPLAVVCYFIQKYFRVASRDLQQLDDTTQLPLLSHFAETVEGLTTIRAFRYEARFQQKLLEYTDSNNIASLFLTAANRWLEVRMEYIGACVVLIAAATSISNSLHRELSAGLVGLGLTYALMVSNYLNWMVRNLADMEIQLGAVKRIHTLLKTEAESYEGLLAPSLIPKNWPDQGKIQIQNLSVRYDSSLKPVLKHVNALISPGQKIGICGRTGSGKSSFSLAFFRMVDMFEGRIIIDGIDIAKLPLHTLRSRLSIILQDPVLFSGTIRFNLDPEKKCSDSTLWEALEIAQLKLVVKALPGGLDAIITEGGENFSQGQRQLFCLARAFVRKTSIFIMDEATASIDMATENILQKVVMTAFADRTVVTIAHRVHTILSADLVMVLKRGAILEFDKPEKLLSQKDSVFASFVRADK
T16 sequence (P70673 whole entry partner): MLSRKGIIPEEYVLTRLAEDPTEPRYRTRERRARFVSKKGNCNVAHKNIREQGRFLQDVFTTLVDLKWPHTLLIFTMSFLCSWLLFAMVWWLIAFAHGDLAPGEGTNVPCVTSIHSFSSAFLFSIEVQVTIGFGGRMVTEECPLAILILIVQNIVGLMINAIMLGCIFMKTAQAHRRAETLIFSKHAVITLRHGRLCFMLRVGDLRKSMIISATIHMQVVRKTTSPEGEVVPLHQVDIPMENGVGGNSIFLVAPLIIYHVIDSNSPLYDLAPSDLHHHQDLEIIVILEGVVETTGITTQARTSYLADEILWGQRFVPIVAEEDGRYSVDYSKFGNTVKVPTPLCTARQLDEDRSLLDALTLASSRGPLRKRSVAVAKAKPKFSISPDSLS

V1a(h) = target: T17, V1a(h) (Homo sapiens, UniProt P37288); assay: V1a(h) binding assay; conditions: 1.0E−05 M; read-out: % Inhibition of Control Specific Binding
T17 construct: expressed in transfected cells; host or cells: CHO cells

I2 (central) = I2 (central) binding assay; design: species or system rat; conditions: 1.0E−05 M
Androgen(h) (AR) = target: T18, Androgen(h) (AR) (Homo sapiens, UniProt P10275, T878A); assay: Androgen(h) (AR) binding assay; conditions: 1.0E−05 M; read-out: % Inhibition of Control Specific Binding
T18 construct: LNCaP cells; endogenous in cells; host or cells: LNCaP cells (cytosol)

Cl-channel = Cl-channel binding assay; design: species or system rat; conditions: 1.0E−05 M
NK1(h) = target: T19, NK1(h) (Homo sapiens, UniProt P25103); assay: NK1(h) binding assay; conditions: read-out: % Inhibition of Control Specific Binding
T19 construct: NK1(h); U-373MG cells; [Sar^9,Met(O2)^11]-SP; Heuillet et al. (1993); endogenous in cells; host or cells: U-373MG cells

[2] = target: Ca^2+ channel (L, DHP site) (Rattus norvegicus, UniProt P22002); assay: Ca^2+ channel (L, DHP site) binding assay; conditions: read-out: % Inhibition of Control Specific Binding
Ca^2+ channel (L, DHP site), sequence (P22002 whole entry): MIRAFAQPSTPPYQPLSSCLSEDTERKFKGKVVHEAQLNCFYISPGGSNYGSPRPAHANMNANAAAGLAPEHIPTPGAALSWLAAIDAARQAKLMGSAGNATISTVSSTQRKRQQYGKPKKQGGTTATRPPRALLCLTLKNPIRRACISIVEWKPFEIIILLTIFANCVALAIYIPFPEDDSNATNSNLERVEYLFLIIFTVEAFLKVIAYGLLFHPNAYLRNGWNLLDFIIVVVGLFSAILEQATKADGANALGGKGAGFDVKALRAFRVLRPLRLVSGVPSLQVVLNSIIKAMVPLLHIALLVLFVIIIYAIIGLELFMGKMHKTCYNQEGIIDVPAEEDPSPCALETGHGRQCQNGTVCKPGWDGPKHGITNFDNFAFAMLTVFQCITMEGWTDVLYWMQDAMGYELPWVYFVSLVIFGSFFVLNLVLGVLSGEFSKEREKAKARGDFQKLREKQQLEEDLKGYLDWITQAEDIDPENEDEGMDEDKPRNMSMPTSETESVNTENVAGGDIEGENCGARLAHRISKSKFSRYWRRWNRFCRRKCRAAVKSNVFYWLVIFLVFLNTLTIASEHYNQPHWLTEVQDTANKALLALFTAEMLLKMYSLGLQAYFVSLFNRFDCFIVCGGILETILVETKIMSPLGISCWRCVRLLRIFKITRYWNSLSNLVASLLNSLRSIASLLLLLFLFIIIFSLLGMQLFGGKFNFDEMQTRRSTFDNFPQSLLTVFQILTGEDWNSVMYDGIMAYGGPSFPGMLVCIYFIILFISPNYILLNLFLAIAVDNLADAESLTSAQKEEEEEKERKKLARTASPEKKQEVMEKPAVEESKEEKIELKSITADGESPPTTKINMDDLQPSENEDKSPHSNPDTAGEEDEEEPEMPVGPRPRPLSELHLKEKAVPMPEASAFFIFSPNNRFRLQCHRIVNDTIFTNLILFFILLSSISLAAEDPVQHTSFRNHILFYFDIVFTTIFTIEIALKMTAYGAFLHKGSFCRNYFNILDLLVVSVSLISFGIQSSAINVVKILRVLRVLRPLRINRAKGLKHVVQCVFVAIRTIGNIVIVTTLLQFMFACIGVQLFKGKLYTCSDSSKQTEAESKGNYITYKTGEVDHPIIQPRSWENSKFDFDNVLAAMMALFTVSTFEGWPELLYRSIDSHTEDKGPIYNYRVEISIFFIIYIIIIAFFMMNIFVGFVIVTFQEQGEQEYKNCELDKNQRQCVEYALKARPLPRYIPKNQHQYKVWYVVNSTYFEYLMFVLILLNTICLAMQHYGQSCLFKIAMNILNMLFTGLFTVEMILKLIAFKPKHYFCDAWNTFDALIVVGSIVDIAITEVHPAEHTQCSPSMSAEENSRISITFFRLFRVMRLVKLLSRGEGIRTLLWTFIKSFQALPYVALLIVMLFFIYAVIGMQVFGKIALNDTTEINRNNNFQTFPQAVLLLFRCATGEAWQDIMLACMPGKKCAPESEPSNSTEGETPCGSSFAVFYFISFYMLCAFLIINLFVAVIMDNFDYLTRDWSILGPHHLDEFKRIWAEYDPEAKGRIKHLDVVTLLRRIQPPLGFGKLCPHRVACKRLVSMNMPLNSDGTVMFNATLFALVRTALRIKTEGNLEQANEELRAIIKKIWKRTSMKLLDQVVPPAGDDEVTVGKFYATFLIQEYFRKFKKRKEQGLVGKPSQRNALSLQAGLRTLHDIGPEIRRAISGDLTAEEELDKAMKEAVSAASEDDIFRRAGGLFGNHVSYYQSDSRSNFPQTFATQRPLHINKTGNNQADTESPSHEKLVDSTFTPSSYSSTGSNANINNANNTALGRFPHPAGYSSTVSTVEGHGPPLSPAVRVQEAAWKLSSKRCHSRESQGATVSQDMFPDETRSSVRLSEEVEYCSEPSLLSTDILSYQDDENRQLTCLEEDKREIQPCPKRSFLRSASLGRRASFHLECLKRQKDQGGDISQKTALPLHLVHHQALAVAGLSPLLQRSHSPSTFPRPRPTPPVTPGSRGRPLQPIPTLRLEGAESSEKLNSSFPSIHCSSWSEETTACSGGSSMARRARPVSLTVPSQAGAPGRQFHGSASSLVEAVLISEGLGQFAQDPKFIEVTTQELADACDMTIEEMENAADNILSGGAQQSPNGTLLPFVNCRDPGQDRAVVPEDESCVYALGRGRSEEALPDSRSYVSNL

T1 sequence (P21728 whole entry): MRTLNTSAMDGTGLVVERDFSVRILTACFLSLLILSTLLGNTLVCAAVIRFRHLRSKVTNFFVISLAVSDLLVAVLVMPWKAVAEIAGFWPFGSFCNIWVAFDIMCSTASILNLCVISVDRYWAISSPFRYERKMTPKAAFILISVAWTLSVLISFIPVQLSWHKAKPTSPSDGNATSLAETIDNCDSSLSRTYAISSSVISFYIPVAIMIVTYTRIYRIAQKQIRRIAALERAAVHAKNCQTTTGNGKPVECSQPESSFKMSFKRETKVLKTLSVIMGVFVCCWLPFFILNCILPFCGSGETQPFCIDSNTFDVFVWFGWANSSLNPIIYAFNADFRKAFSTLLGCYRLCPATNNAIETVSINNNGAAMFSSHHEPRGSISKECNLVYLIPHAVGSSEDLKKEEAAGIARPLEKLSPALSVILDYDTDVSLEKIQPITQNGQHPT

N#Cc1ccc2c(ccn2CCCCCB(O)O)c1 [Example 20, 5-(5-cyano-1H-indol-1-yl)pentylboronic acid]
inhibition at 10 µM (D1(h)): 0% | inhibition at 10 µM (Glucocorticoid(h) (GR)): -7% | % Inhibition of Control Values (MAO-B(h)): −8% | % Inhibition of Control Values (Phosphodiesterase 3(h)): 95% | inhibition at 10 µM (AT1(h)): -3% | inhibition at 10 µM (NK3(h)): 3% | inhibition at 10 µM (AT2(h)): 3% | inhibition at 10 µM (NE transporter(h)): 15% | inhibition at 10 µM (ORL1(h) (NOP)): 0% | % Inhibition of Control Specific Binding (Opiate (non-selective)): 20% | % Inhibition of Control Specific Binding (TRH): −17% | inhibition at 10 µM (B1(h)): -5% | % Inhibition of Control Specific Binding (P2X): 14% | % Inhibition of Control Values (GABA transaminase): −2% | % Inhibition of Control Specific Binding (σ (non-selective)): 5% | inhibition at 10 µM (β2(h)): 5% | IC50 (TNF-α production by PMBC): 750 nM | inhibition at 10 µM (D2S(h)): 23% | inhibition at 10 µM (D4.4(h)): 1% | % Inhibition of Control Specific Binding (SK^+Ca channel): −15% | % Inhibition of Control Specific Binding (Y (non-selective)): 14% | % Inhibition of Control Values (Acetylcholinesterase(h)): 11% | % Inhibition of Control Specific Binding (GABA (non-selective)): −15% | % Inhibition of Control Values [1]: 1% | inhibition at 10 µM (CCKB(h) (CCK2)): 5% | inhibition at 10 µM (K^+ATP channel): 25% | inhibition at 10 µM (V1a(h)): 24% | % Inhibition of Control Specific Binding (I2 (central)): 1% | inhibition at 10 µM (Androgen(h) (AR)): 40% | % Inhibition of Control Specific Binding (Cl-channel): 26% | inhibition at 10 µM (NK1(h)): 12% | inhibition at 10 µM [2]: -10%
